{"source": "paper PMC5612656", "about": "“In vitro and in vivo effects of 2,4 diaminoquinazoline inhibitors of the decapping scavenger enzyme DcpS: Context-specific modulation of SMN transcript levels” (PLoS ONE, 2017)", "test_system": "SMN transcripts in HEK-293T cells", "assay": "SMN transcripts by ddPCR in HEK-293T cells", "settings": "HEK293T cells"}
{"smiles": "Nc1nc(N)c2c(OCC3CCN(Cc4c(Cl)cccc4Cl)CC3)cccc2n1", "note": "[RG3039]", "values": [{"measurement": "SMN2 transcript increase at later time points", "setting": "8 or 24hr", "result": "much reduced or absent"}, {"measurement": "increase in SMN2 transcript", "setting": "after 4h of treatment", "result": "~ 20%"}]}
